Assay results: patent US20150148311A1, “NON-SYSTEMIC TGR5 AGONISTS” (Ardelyx, Inc., priority 2011, published 2015)

Legend:
C57BL/6 male mice [1] = test: In vivo gallbladder measurement (weight) 16 hours post-dose; settings: 30 mg/kg
[2] = Compound concentration in gall bladder, LC-MS/MS, 8 h post dose; assay type: in vivo; settings: 30 mg/kg; for Number of Mice with Gallbladder Concentration < LLOQ: mice below LLOQ / mice in group; for concentration at 8 h: male, C57BL/6, mouse, with contents, mice, gallbladder homogenate, read-out: Mean Example Gallbladder Concentration
How it was run: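 Gallbladder with its contents excised from isoflurane-anesthetized mice 8 h after dosing and homogenized in water. Homogenate diluted 1:5, precipitated with acetonitrile and measured by LC-MS/MS. Levels interpolated from per-compound standard curves in vehicle-treated gallbladder homogenate.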

CD-1 female mice = test: In vivo measurement of CCK-mediated gallbladder emptying (egg yolk); settings: fasted ~16 h, oral 30 mg/kg (devazepide 1 mg/kg) 1 h before egg yolk, gallbladder weighed 15 min later (FIG. 1)
Experimental: CD-1 female mice on regular chow had food removed (to prevent gallbladder emptying) in the late evening. The next morning (˜16 h later), groups of mice were dosed orally with vehicle (10% hydroxypropyl-β-cyclodextrin; 2 groups), devazepide in water (1 mg/kg; […]. One hour later, 1 group of vehicle-treated mice was dosed orally with saline, and all other groups were dosed orally with lyophilized egg yolk [0.75 mL; 30% (wt/vol) reconstituted in saline for induction of CCK-mediated gallbladder emptying]. Fifteen minutes later, mice were heavily anesthetized with isoflurane, the peritoneal cavity was opened and gallbladders (with contents) were carefully excised and weighed.

[3] = Compound plasma concentration, LC-MS/MS, 8 h post dose; assay type: in vivo; settings: 30 mg/kg; for Number of Mice with Plasma Concentration < LLOQ: mice below LLOQ / mice in group; for concentration at 8 h: male, C57BL/6, mouse, mice, plasma, read-out: Mean Example Plasma Concentration
How it was run: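 Blood was taken from the left ventricle 8 h after dosing, under isoflurane anesthesia, into EDTA tubes containing aprotinin and DPPIV inhibitor. Plasma was protein-precipitated with acetonitrile containing an internal standard, and supernatants were analyzed by LC-MS/MS against a plasma standard curve.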

total (t) GLP-1 = test: Time course of in vivo induction of total GLP-1; settings: C57BL/6 male mice, 30 mg/kg oral, 4, 8, 12 and 16 h
Experimental: (§1) C57BL/6 male mice on regular chow received an oral dose of vehicle (2% DMSO in 0.4% hydroxypropyl methylcellulose) or examples 176 or 178 (at 30 mg/kg). Food was removed prior to/or at the time of dosing: 4, 8, 12, and 16 h groups fasted for 7, 8, 12 and 16 h, respectively. At the appropriate time after dosing, mice were heavily anesthetized with isoflurane, and blood was collected from the left ventricle of the heart and processed to plasma as described in Example 293 for measurement of total (t) GLP-1 and, additionally, total (t)PYY (N45ZA-1; Meso Scales Discovery, Gaithersburg Md.).

total (t)PYY = test: Time course of in vivo induction of total PYY; settings: C57BL/6 male mice; for induction of tPYY levels following a single oral dose: 30 mg/kg oral, 4, 8, 12 and 16 h
Experimental: as §1

human FXR = biological target: T1, human FXR (Homo sapiens, UniProt Q96RI1); test: FXR counter screen, cell-based luciferase reporter assay; settings: cells expressing human FXR and FXR-responsive luciferase reporter, 0.4 to 50 μM test compound; read-out: pEC50 human FXR (converted)
T1 construct: purchased Indigo Biosciences (State College, Pa.)
T1 sequence (Q96RI1 1-486): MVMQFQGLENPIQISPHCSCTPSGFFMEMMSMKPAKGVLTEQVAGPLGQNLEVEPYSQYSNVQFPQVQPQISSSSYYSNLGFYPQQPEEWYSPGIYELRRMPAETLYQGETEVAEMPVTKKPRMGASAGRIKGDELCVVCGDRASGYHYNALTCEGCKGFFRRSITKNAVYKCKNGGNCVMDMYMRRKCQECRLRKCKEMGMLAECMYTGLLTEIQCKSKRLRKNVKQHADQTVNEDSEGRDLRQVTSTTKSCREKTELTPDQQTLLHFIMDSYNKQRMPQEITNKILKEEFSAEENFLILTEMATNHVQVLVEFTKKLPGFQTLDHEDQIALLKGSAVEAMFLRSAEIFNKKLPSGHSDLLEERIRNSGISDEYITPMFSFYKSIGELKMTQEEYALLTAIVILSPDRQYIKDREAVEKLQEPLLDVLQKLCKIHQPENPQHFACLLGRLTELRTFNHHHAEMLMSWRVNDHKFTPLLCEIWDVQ
Experimental: FXR: The ability of test compounds to activate FXR (NR1H4) was measured using a cell-based assay kit obtained from Indigo Biosciences (State College, Pa.).

human IBAT = biological target: T2, human IBAT (Homo sapiens, UniProt Q12908); test: IBAT counter screen, [3H]taurocholic acid uptake in IBAT-transfected HEK293 cells; assay type: cell-based; settings: read-out: pEC50 human IBAT (converted)
T2 construct: expressed in transfected cells; host or cells: HEK293
T2 sequence (Q12908 1-348): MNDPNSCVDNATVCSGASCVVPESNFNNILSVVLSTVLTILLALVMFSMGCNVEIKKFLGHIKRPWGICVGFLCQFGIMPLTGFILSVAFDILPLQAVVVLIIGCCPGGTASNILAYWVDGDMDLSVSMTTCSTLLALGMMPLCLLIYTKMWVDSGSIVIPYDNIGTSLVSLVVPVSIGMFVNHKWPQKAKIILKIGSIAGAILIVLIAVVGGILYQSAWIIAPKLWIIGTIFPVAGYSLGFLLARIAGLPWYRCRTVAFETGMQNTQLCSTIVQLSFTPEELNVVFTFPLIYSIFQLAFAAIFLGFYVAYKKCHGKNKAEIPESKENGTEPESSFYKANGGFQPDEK
Experimental: Following a 40-min incubation, the solution was removed, and the cells were washed twice with uptake buffer. Cells were lysed by addition of 20 μL 0.1% Tween 80 followed by 100 μL scintillation fluid and counted using a TopCount (Perkin Elmer).

[4] = biological target: T3, endogenously expressed TGR5 in NCI H716 (Homo sapiens, UniProt Q8TDU6); test: Cell-based TGR5 assay, NCI-H716 cells endogenously expressing human TGR5, cAMP by HTRF; settings: 30 min at 37 C, 22 nM to 50 μM, read-out: pEC50 endogenously expressed TGR5 in NCI H716 (converted)
T3 construct: human caecum carcinoma cell line NCI-H716 which endogenously expresses human TGR5; endogenous in cells; host or cells: NCI-H716
T3 sequence (Q8TDU6 1-330): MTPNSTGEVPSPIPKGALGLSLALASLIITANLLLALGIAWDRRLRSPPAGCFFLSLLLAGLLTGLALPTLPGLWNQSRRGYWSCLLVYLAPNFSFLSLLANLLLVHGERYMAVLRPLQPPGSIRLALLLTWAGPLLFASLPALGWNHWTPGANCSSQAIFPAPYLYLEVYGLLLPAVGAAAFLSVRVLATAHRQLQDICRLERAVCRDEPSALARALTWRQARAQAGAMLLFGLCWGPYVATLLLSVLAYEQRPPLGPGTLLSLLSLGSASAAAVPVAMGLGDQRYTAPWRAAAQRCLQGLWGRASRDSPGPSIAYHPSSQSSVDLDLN
How it was run: (§2)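 cAMP HTRF read-out, converted to concentration via standard curve, after a 30 min, 37 °C compound exposure in HBSS with 10 mM HEPES pH 7.4 and 0.5 mM IBMX, compounds serially diluted 3-fold from 10 mM DMSO stock then 100-fold. Cells: stable human TGR5 HEK293, or NCI-H716 expressing TGR5 endogenously.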

human TGR5 = biological target: T4, human TGR5 (Homo sapiens, UniProt Q8TDU6); test: Cell-based TGR5 assay, HEK293 cells stably expressing human TGR5, cAMP by HTRF; settings: HEK293 cells stably expressing human TGR5, 30 min at 37 C, 0.05 nM to 10 μM, read-out: pEC50 Human TGR5 (converted)
T4 construct: expressed in transfected cells
T4 sequence (Q8TDU6 1-330): T3 sequence (Q8TDU6 1-330)
How it was run: as §2

[5] = Compound concentration in gallbladder 16 hours post dose; assay type: in vivo; settings: 30 mg/kg; for Number of Mice with Gallbladder Concentration < LLOQ: mice below LLOQ / mice in group; for concentration at 16 h: male, C57BL/6, mouse, gallbladder (homogenate, with contents), mice, gallbladder, read-out: Mean Example Gallbladder Concentration
Experimental: Compound concentrations in the gall bladder were determined as follows: each mouse was heavily anesthetized with isoflurane, the peritoneal cavity was opened and the gallbladder, with its entire contents, was carefully excised. After harvest, gall bladders were homogenized in 100 μL water using a micro-homogenizer. Samples of homogenate were diluted 1:5 in water and precipitated with three volumes of neat acetonitrile. After centrifugation, supernatants were analyzed by LC-MS/MS. The level of test compound present in gall bladder samples was interpolated from a standard curve for each individual compound prepared in a matrix of gallbladder homogenate from vehicle treated animals.
C57BL/6 male mice on regular chow had food removed (to prevent gallbladder emptying) and were dosed in the early evening with vehicle (2% DMSO in 0.4% hydroxypropyl methylcellulose) or 30 mg/kg of examples 176, 177, or 178 formulated in vehicle. The next morning (˜16 h post-dose), mice were heavily anesthetized with isoflurane, the peritoneal cavity was opened and gallbladders (with contents) were carefully excised and weighed. Compound levels in gallbladder were analyzed as described in Example 293.

total GLP-1 = test: In vivo GLP-1 secretion, plasma total GLP-1 8 h post dose; settings: Mus musculus, C57BL/6 male mice, food removed, plasma total GLP-1 eight hours after dosing, read-out: GLP-1 fold change over vehicle, Mean
Excerpt: (§3) Eight hours later, each mouse was heavily anesthetized with isoflurane, the peritoneal cavity was opened and the gallbladder, with its entire contents, was carefully excised and weighed. Blood was collected from the left ventricle of the heart and processed to plasma in EDTA-coated tubes containing aprotinin and DPPIV inhibitor for measurement of total GLP-1 (K150FCC; Meso Scales Discovery, Gaithersburg Md.).

C57BL/6 male mice [6] = test: In vivo gallbladder measurement (weight) 8 h post dose; settings: 30 mg/kg
Excerpt: as §3

mice = settings: i.p. injection, in 30 minutes, literature (Li et al. 2011); cited from earlier work

O=C(NC[C@H](O)[C@@H](O)[C@H](O)[C@H](O)CO)c1ccc(COc2cc(Cl)c(CN3CSC[C@H]3C(=O)N3CCN(C4CC4)c4ccccc43)cc2Cl)cc1 [Example 176, 4-(2,5-dichloro-4-{[(4R)-4-[(4-cyclopropyl-1,2,3,4-tetrahydroquinoxalin-1-yl)carbonyl]-1,3-thiazolidin-3-yl]methyl}phenoxymethyl)-N-[(2S,3R,4R,5R)-2,3,4,5,6-pentahydroxyhexyl]benzamide]
effect on gallbladder weight/body weight (C57BL/6 male mice [1]): no significant effect | Number of Mice with Gallbladder Concentration < LLOQ [2]: 0/8 | concentration at 8 h [2]: 100 nM | inhibition of CCK-mediated gallbladder emptying (CD-1 female mice): did not inhibit | Number of Mice with Plasma Concentration < LLOQ [3]: 8/8 | concentration at 8 h [3]: < 2 ng/mL | induction of tGLP-1 levels following a single oral dose (total (t) GLP-1): sustained induction | induction of tPYY levels following a single oral dose (total (t)PYY): sustained induction

O=C(CCCCc1cc(Cl)c(CN2CSC[C@H]2C(=O)N2CCN(C3CC3)c3ccccc32)cc1Cl)NC[C@H](O)[C@@H](O)[C@H](O)[C@H](O)CO [Example 178, 5-(2,5-dichloro-4-(((R)-4-(4-cyclopropyl-1,2,3,4-tetrahydroquinoxaline-1-carbonyl)thiazolidin-3-yl)methyl)phenyl)-N-((2S,3R,4R,5R)-2,3,4,5,6-pentahydroxyhexyl)pentanamide]
EC50 (human FXR): > 50100 nM | effect on gallbladder weight/body weight (C57BL/6 male mice [1]): no significant effect | Number of Mice with Gallbladder Concentration < LLOQ [2]: 0/8 | EC50 (human IBAT): > 25100 nM | inhibition of CCK-mediated gallbladder emptying (CD-1 female mice): did not inhibit | Number of Mice with Plasma Concentration < LLOQ [3]: 8/8 | concentration at 8 h [3]: < 1 ng/mL | induction of tGLP-1 levels following a single oral dose (total (t) GLP-1): sustained induction | induction of tPYY levels following a single oral dose (total (t)PYY): sustained induction | times after dosing at which tPYY levels were significantly elevated (total (t)PYY; 30 mg/kg oral, tested 4, 8, 12 and 16 h (FIG. 2, panel B)): 8 h

O=C(O)CCc1cc(Cl)c(CNC2(C(=O)N3CCN(C4CC4)c4ccccc43)CC2)cc1Cl [Example 83, 3-(2,5-dichloro-4-(((1-(4-cyclopropyl-1,2,3,4-tetrahydroquinoxaline-1-carbonyl)cyclopropyl)amino)methyl)phenyl)propanoic acid]
EC50 [4]: 1260 to 50100 nM | EC50 (human TGR5): 126 to 1000 nM | Number of Mice with Gallbladder Concentration < LLOQ [5]: 0/6 | concentration at 16 h [5]: 30 nM

CN1C(=O)[C@@H](NC(=O)c2cc3ccccc3[nH]2)N=C(c2ccccc2)c2ccccc21 [devazepide, reference compound]
inhibition of CCK-mediated gallbladder emptying (CD-1 female mice): did

O=C(N1CCCc2cccnc21)C1(OCc2cc(Cl)ccc2Cl)CC1 [Example 85, 1-([1-[(2,5-dichlorophenyl)methoxy]cyclopropyl]carbonyl)-1,2,3,4-tetrahydro-1,8-naphthyridine]
EC50 [4]: 1260 to 50100 nM | EC50 (human TGR5): 126 to 1000 nM | Number of Mice with Gallbladder Concentration < LLOQ [5]: 0/6 | concentration at 16 h [5]: 200 nM

O=C(N1CCN(C2CC2)c2ccccc21)C1(NCc2cc(Cl)ccc2Cl)CC1 [Example 26, (4-cyclopropyl-3,4-dihydroquinoxalin-1(2H)-yl)(1-((2,5-dichlorobenzyl)amino)cyclopropyl)methanone]
EC50 (human FXR): > 50100 nM | Number of Mice with Gallbladder Concentration < LLOQ [2]: 0/8 | concentration at 8 h [2]: 30 nM | EC50 (human IBAT): > 25100 nM | EC50 [4]: < 100 nM | response vs control in vivo at 30 mg/kg (total GLP-1): 160% | Gallbladder weight/body weight fold change over vehicle, Significance (C57BL/6 male mice [6]; 8 h, vs. vehicle, one-way ANOVA, Dunnett's test): * (* p < 0.05 vs. vehicle; One-way ANOVA followed by Dunnett's test) | Gallbladder weight/body weight fold change over vehicle, Mean (C57BL/6 male mice [6]; food removed, eight hours after dosing): 1.6 fold change over vehicle | EC50 (human TGR5): < 100 nM | Number of Mice with Plasma Concentration < LLOQ [3]: 0/8 | concentration at 8 h [3]: 9.1 ng/mL

CC[C@H]1[C@@H](O)[C@@H]2[C@H](C[C@H](O)[C@]3(C)[C@@H]([C@H](C)C[C@H](C)C(=O)O)CC[C@@H]23)[C@@]2(C)CC[C@@H](O)C[C@@H]12 [INT-777]
increase of gallbladder volume (mice): approximately two-fold
